From PubChem BioAssay (NCI)
Several values for one entry are separate records, joined by “and”; a condition that tells them apart may be missing. Equal values may be shown once.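 The compound was tested at five concentrations on cells cultured in 96-well plates, with a 48-hour exposure period. The concentration for 50% growth inhibition is given as GI50. TGI: total growth inhibition.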

System: MDA-MB-468 breast
Assay: inhibition of tumour cell growth, NCI panel, 48 h

SMILES | GI50 | TGI
COc1ccccc1/C=C/C(=O)/C=C/c1ccccc1O | 0.53 µM | 2.06 µM
COCCOCCOCc1n(Cc2ccc3ccccc3n2)c2ccccc2[n+]1Cc1ccc2ccccc2c1 | 0.259 µM | 0.996 µM
NC(=O)c1cccc(Nc2nccc(Nc3cccc(F)c3)n2)c1 | 3.88 µM | 12.8 µM
CCC(=C(c1ccc(OCCCN(C)C)cc1)c1ccc(OCCCN(C)C)cc1)c1ccc(Cl)cc1 | 1.15 µM | 3.74 µM
COc1ccc(/C=C2/CCc3cc4ccc(OC)cc4[o+]c32)c(O)c1 | 14 µM | 34.9 µM
CCN(CC)CCNC(=O)c1c(C)[nH]c(/C=C2\C(=O)Nc3ccc(F)cc32)c1C | > 10 µM and 3.25 µM and 1.41 µM | > 10 µM and 6.21 µM and 4.31 µM
CCCCCCCCCCCC[n+]1ccccc1 (tested in a mixture with another compound) | 0.246 µM | 3.36 µM
O=C1C(Cl)=C(Nc2ccccc2)C(=O)c2ccccc21 | 1.52 µM | 3.1 µM
C=C1CC2(OC1=O)C(=O)N(CCCN1C(=O)C3(CC(=C)C(=O)O3)c3ccccc31)c1ccccc12 (stereo unspecified) | 1.28 µM | 3.25 µM
CC1(C)N=C(N)N=C(N)N1c1ccc(OCC(=O)Nc2ccccc2)c(Cl)c1 | 3.05 µM | > 100 µM
Cn1cc(-c2csc(-c3cn(C)c4ccccc34)n2)c2cnccc21 | 0.265 µM | 0.866 µM
CCC1=C[C@@H]2CN(C1)Cc1c([nH]c3ccccc13)[C@@](C(=O)OC)(c1cc3c(cc1OC)N(C)[C@H]1[C@@](O)(C(=O)OC)[C@H](OC(C)=O)[C@]4(CC)[C@@H]5C[C@@H]5CN5CC[C@]31[C@@H]54)C2 | < 0.005 µM | 5.74 µM
COc1ccc2cc(-c3ccc(-c4ccc(C(=N)N)s4)s3)ccc2c1 | 2.34 µM | 4.44 µM
COc1cc2c(cc1-c1c(C)noc1C)cc(C)c(=O)n2Cc1ccccn1 | 0.859 µM | 4.8 µM
Cn1c([N+](=O)[O-])cnc1/C=C1\Oc2cc(Cl)ccc2C1=O | 3.15 µM | 15.2 µM
O=S1(=O)NCCCN1CCNc1nccc(-c2c(-c3cccc(O)c3)nc3sccn23)n1 | 13.3 µM | > 86.1 µM
COc1ccc(-c2nnc(N3CCN(C(=O)CN4CCN(c5ccc(OC)cc5)CC4)CC3)nc2-c2ccc(OC)cc2)cc1 | 4.23 µM | 21.7 µM
O=C(O)CCC(NC(=S)S)C(=O)O.[Na+].[Zn+2] (stereo unspecified) | > 50 µM | > 50 µM
Cc1nc(Nc2n[nH]c3c2CN(C(=O)N[C@H](CN(C)C)c2ccccc2)C3(C)C)c2sccc2n1 | 0.247 µM and 0.226 µM | 2.26 µM and 2.47 µM
O=S(=O)(CCOCc1ccc(-c2ccc3ncnc(Nc4ccc(OCc5cccc(F)c5)c(Cl)c4)c3c2)o1)c1ccccc1 | 0.105 µM | 2.33 µM
CCCCCCCCCCCCCCCCCCNC(=O)[C@H]1CSC(c2cccs2)N1 (stereo partly specified) | 9.32 µM | > 50 µM
CNC(=O)c1cc2c(Oc3ccc(NC(=O)C4(C(=O)Nc5ccc(F)cc5)CC4)cc3)ccnc2cc1OC | 2.88 µM | 13.5 µM
C[C@H](Cn1ncnn1)Nc1ncc2cc(Oc3ccc(F)cc3F)c(=O)n(C)c2n1 | > 25 µM | > 25 µM
